According to publication PMC9958325 (Nature Communications, 2023):
Several values for one entry are separate records, joined by “and”; a condition that tells them apart may be missing. Identical values can stand only once. Like-named read-outs stand apart in the source and are kept apart here.

Experiments:
SARS-CoV-2^WK-521 = assay: microbe, parasite or virus in culture; assay type: cell-based; design: EC95, individual assays / EC95, Average: unit: µM
[1] = Pharmacokinetic study in PXB-mice (human liver-chimeric)

SMILES: CC(C)(C)[C@H](NC(=O)C(F)(F)F)C(=O)N1C[C@H]2[C@@H]([C@H]1C(=O)N[C@H](C#N)C[C@@H]1CCNC1=O)C2(C)C [Nirmatrelvir, reference compound]
- EC95, Average (SARS-CoV-2^WK-521): 7.815
- EC95, individual assays (SARS-CoV-2^WK-521): 8.01 and 9.89 and 6.31 and 7.05
- SARS-CoV2 RNA VeroE6 cell-based assay EC95 (SARS-CoV-2^WK-521): 7.81 ± 1.55 µM
- EC50 (SARS-CoV-2^WK-521; Severe acute respiratory syndrome coronavirus 2, Vero C1008, read-out: EC50, Average): 942 nM
- EC50 (SARS-CoV-2^WK-521; Severe acute respiratory syndrome coronavirus 2, Vero C1008, read-out: EC50, VeroE6 + 2 µM CP100356): 25 nM
- EC50 (SARS-CoV-2^WK-521; Severe acute respiratory syndrome coronavirus 2, Vero C1008, read-out: EC50, VeroE6 with CP100356, Average): 25 nM
- EC50 (SARS-CoV-2^WK-521; Severe acute respiratory syndrome coronavirus 2, Vero C1008, read-out: EC50, VeroE6 with CP100356, individual assays): 22 nM
- EC50 (SARS-CoV-2^WK-521; Severe acute respiratory syndrome coronavirus 2, Vero C1008, read-out: SARS-CoV2 RNA VeroE6 cell-based assay EC50): 940 ± 210 nM
- EC50 (SARS-CoV-2^WK-521; read-out: EC50, Average): 1020 nM
- EC50 (SARS-CoV-2^WK-521; read-out: EC50, VeroE6 with CP100356, individual assays): 27 nM
- EC50 (SARS-CoV-2^WK-521; read-out: EC50, individual assays): 1090 nM and 700 nM and 1150 nM and 830 nM and 1470 nM
- concentration at 10 min ([1]; PXB (human liver-chimeric), mouse, plasma, po, 10 mg/kg, plasma concentration, 10 min, individual animals (3 per time point), LC/MS/MS): 1600 ng/mL
- concentration at 240 min ([1]; PXB (human liver-chimeric), mouse, plasma, po, 10 mg/kg, plasma concentration, 240 min, individual animals (3 per time point), LC/MS/MS): 47.2 ng/mL
- concentration at 1440 min ([1]; PXB (human liver-chimeric), mouse, plasma, po, 10 mg/kg, plasma concentration, 1440 min, individual animals (3 per time point), LC/MS/MS): 0.63 ng/mL
- Plasma concentration ([1]; PXB-mice, i.v. 10 mg/kg, 10 min, individual mice, 10 mg/kg): 5525.9 ng/mL and 4420.7 ng/mL
- Plasma concentration ([1]; PXB-mice, i.v. 10 mg/kg, 0.17 hr, individual mice, 10 mg/kg): 5530 ng/mL and 4420 ng/mL
- Plasma concentration ([1]; PXB-mice, i.v. 10 mg/kg, 60 min, individual mice, 10 mg/kg): 305.4 ng/mL and 496.6 ng/mL
- Plasma concentration ([1]; PXB-mice, i.v. 10 mg/kg, 1 hr, individual mice, 10 mg/kg): 310 ng/mL and 500 ng/mL
- Plasma concentration ([1]; PXB-mice, i.v. 10 mg/kg, 240 min, individual mice, 10 mg/kg): 10 ng/mL and 10.6 ng/mL and 46.3 ng/mL
- Plasma concentration ([1]; PXB-mice, i.v. 10 mg/kg, 4 hr, individual mice, 10 mg/kg): 0.01 µg/ml (2×) and 0.05 µg/ml
- Plasma concentration ([1]; PXB-mice, i.v. 10 mg/kg, 480 min, individual mice, 10 mg/kg): 1.3 ng/mL and 2.2 ng/mL
- Plasma concentration ([1]; PXB-mice, i.v. 10 mg/kg, 8 hr, individual mice): 0 ng/mL
- Plasma concentration ([1]; PXB-mice, i.v. 10 mg/kg, 1440 min, individual mice, 10 mg/kg): 0.2 ng/ml (2×) and 0.9 ng/ml
- Plasma concentration ([1]; PXB-mice, i.v. 10 mg/kg, 24 hr, individual mice): 0 ng/mL
- Plasma concentration ([1]; PXB-mice, p.o. 10 mg/kg, 10 min, individual mice, 10 mg/kg): 889.5 ng/mL and 980.6 ng/mL
- Plasma concentration ([1]; PXB-mice, p.o. 10 mg/kg, 0.17 hr, individual mice, 10 mg/kg): 890 ng/mL and 980 ng/mL
- Plasma concentration ([1]; PXB-mice, p.o. 10 mg/kg, 60 min, individual mice, 10 mg/kg): 653.1 ng/mL and 318.8 ng/mL and 407 ng/mL
- Plasma concentration ([1]; PXB-mice, p.o. 10 mg/kg, 1 hr, individual mice, 10 mg/kg): 650 ng/mL and 320 ng/mL and 410 ng/mL
- Plasma concentration ([1]; PXB-mice, p.o. 10 mg/kg, 240 min, individual mice, 10 mg/kg): 34.6 ng/mL and 30.7 ng/mL
- Plasma concentration ([1]; PXB-mice, p.o. 10 mg/kg, 4 hr, individual mice, 10 mg/kg): 30 ng/mL
- Plasma concentration ([1]; PXB-mice, p.o. 10 mg/kg, 480 min, individual mice, 10 mg/kg): 4.4 ng/mL and 7.4 ng/mL and 18.7 ng/mL
- Plasma concentration ([1]; PXB-mice, p.o. 10 mg/kg, 8 hr, individual mice, 10 mg/kg): 0 ng/mL and 10 ng/mL and 20 ng/mL
- Plasma concentration ([1]; PXB-mice, p.o. 10 mg/kg, 1440 min, individual mice, 10 mg/kg): 0.6 ng/mL and 0.5 ng/mL
- Plasma concentration ([1]; PXB-mice, p.o. 10 mg/kg, 24 hr, individual mice): 0 ng/mL
- Oral F ([1]; male PXB-mouse 10 mg/kg i.v. and p.o., dose-normalized AUC ratio): 56¶ %
- concentration at 10 min ([1]; male, PXB (human liver-chimeric), mouse, plasma, iv, 10 mg/kg, Plasma concentration, PXB-mice, i.v. 10 mg/kg, 10 min, individual mice): 4250 ng/mL
- concentration at 0.17 hr ([1]; male, PXB (human liver-chimeric), mouse, plasma, iv, 10 mg/kg, Plasma concentration, PXB-mice, i.v. 10 mg/kg, 0.17 hr, individual mice): 4250 ng/mL
- concentration at 60 min ([1]; male, PXB (human liver-chimeric), mouse, plasma, iv, 10 mg/kg, Plasma concentration, PXB-mice, i.v. 10 mg/kg, 60 min, individual mice): 344 ng/mL
- concentration at 1 hr ([1]; male, PXB (human liver-chimeric), mouse, plasma, iv, 10 mg/kg, Plasma concentration, PXB-mice, i.v. 10 mg/kg, 1 hr, individual mice): 340 ng/mL
- concentration at 480 min ([1]; male, PXB (human liver-chimeric), mouse, plasma, iv, 10 mg/kg, Plasma concentration, PXB-mice, i.v. 10 mg/kg, 480 min, individual mice): 2.2 ng/mL
- concentration at 8 hr ([1]; male, PXB (human liver-chimeric), mouse, plasma, iv, 10 mg/kg, Plasma concentration, PXB-mice, i.v. 10 mg/kg, 8 hr, individual mice): 0 ng/mL
- concentration at 24 hr ([1]; male, PXB (human liver-chimeric), mouse, plasma, iv, 10 mg/kg, Plasma concentration, PXB-mice, i.v. 10 mg/kg, 24 hr, individual mice): 0 ng/mL
- Cmax ([1]; male, PXB (human liver-chimeric), mouse, plasma, po, 10 mg/kg): 1160 ng/mL
- concentration at 10 min ([1]; male, PXB (human liver-chimeric), mouse, plasma, po, 10 mg/kg, Plasma concentration, PXB-mice, p.o. 10 mg/kg, 10 min, individual mice): 1600 ng/mL
- concentration at 0.17 hr ([1]; male, PXB (human liver-chimeric), mouse, plasma, po, 10 mg/kg, Plasma concentration, PXB-mice, p.o. 10 mg/kg, 0.17 hr, individual mice): 1600 ng/mL
- concentration at 240 min ([1]; male, PXB (human liver-chimeric), mouse, plasma, po, 10 mg/kg, Plasma concentration, PXB-mice, p.o. 10 mg/kg, 240 min, individual mice): 47.2 ng/mL
- concentration at 4 hr ([1]; male, PXB (human liver-chimeric), mouse, plasma, po, 10 mg/kg, Plasma concentration, PXB-mice, p.o. 10 mg/kg, 4 hr, individual mice): 50 ng/mL
- concentration at 1440 min ([1]; male, PXB (human liver-chimeric), mouse, plasma, po, 10 mg/kg, Plasma concentration, PXB-mice, p.o. 10 mg/kg, 1440 min, individual mice): 0.6 ng/mL
